Source: the PolyMetriX glass transition set
± gives the standard deviation of the reports.

| Compound | glass transition temperature [°C] |
| --- | --- |
| *CCN(CCCCCOc1ccc(/N=N/c2ccccc2)cc1)CCOC(=O)Nc1ccc(Cc2ccc(NC(=O)O*)cc2)cc1 (repeat unit) | 59.60 |
| *c1ccc(Oc2cccc(N3C(=O)c4ccc(-c5cccc6c5C(=O)N(*)C6=O)cc4C3=O)c2)cc1 (repeat unit) | 286.00 |
| *c1ccc(-c2ccc(N3C(=O)c4ccc(-c5ccc6c(c5)C(=O)N(*)C6=O)cc4C3=O)cc2C(F)(F)F)c(C(F)(F)F)c1 (repeat unit) | 323.8 ± 24 |
| *Oc1ccc(C(c2ccc(OC(*)=O)cc2)C(Cl)(Cl)Cl)cc1 (repeat unit) | 230.00 |
| *Cc1ccccc1[Si](*)(C)c1ccccc1 (repeat unit) | 93.80 |
| *Oc1ccc(NC(=O)c2ccc(S(=O)(=O)c3ccc(C(=O)Nc4ccc(Oc5ccc(C6(c7ccc(*)cc7)C7CC8CC(C7)CC6C8)cc5)cc4)cc3)cc2)cc1 (repeat unit) | 252.00 |
| *Nc1ccc(NC(=O)c2ccc(NC(=O)CCCCCCCCCCCCC(=O)Nc3ccc(C(*)=O)cc3)cc2)cc1C(=O)OCCCCCCCCCCCC (repeat unit) | 199.50 |
| *Oc1ccc(CC(NC(=O)CCc2ccc(OC(=O)COCCOCC(*)=O)cc2)C(=O)OCCOCCOCC)cc1 (repeat unit) | 18.00 |
| */C=C/c1sc(/C=C/c2ccc3c4ccc(*)cc4n(CC(CC)CCCC)c3c2)c(CC(CC)CCCC)c1CC(CC)CCCC (repeat unit) | 60.00 |
| *CCCC(Cl)C(*)Cl (repeat unit) | 42.00 |
| *OC(=O)CNC(=O)CNC(=O)CCCCCCCCC(=O)NCC(=O)NCC(=O)OC1COC2C(*)COC12 (repeat unit) | 47.00 |
| *CC(*)C(=O)NCCC[N+](C)(C)CCCS(=O)(=O)O (repeat unit) | 141.50 |
| *Oc1ccc(CC(NC(=O)Cc2ccc(OC(=O)CCCCCCCCC(*)=O)cc2)C(=O)OCCCCCCCC)cc1 (repeat unit) | 16.00 |
| *CC(OC(C)C)C1C(=O)OC(=O)C1* (repeat unit) | 142.00 |
| *CCCCSSCCCCOCO* (repeat unit) | -76.00 |
| *Oc1ccc(C(C)(C)c2ccc(OC(=O)c3ccc(C(=O)c4ccc(C(*)=O)cc4)cc3)cc2)cc1 (repeat unit) | 194.00 |
| *OC(=O)c1ccc(CCCCCc2ccc(C(*)=O)cc2)cc1 (repeat unit) | 42.50 |
| *CCCCCCNC(=O)CCCCCC(=O)N* (repeat unit) | 54.00 |
| *OP(=O)(Oc1ccc(C)cc1)Oc1ccc(S(=O)(=O)c2ccc(*)cc2)cc1 (repeat unit) | 66.00 |
| *Oc1ccc(Cc2ccc(OC(*)=O)cc2)cc1 (repeat unit) | 133.50 |
| *Nc1ccc(-c2ccc(Nc3ccc4c(c3)c3cc(*)ccc3n4CC(CC)CCCC)cc2)cc1 (repeat unit) | 231.00 |
| *CCCCCCOC(=O)OCCCCCCCCCCCCOC(=O)OCCCCCCOc1ccc(C(=O)c2ccc(O*)cc2)cc1 (repeat unit) | -8.00 |

| Compound | glass transition temperature [°C] |
| --- | --- |
| *Oc1ccc(NC(=O)Nc2cc(NC(=O)Nc3ccc(*)c(-c4ccc(Oc5ccccc5)cc4)c3)ccc2C)cc1-c1ccc(Oc2ccccc2)cc1 (repeat unit) | 279.00 |
| *CC(*)(C)C(=O)OCc1ccc2c(c1)c1ccccc1n2CCCC (repeat unit) | 87.00 |
| *c1ccc(Oc2ccc(C3(c4ccc(Oc5ccc(-c6nnc(*)c7c(-c8ccccc8)c(-c8ccc9ccccc9c8)c(-c8ccc9ccccc9c8)c(-c8ccccc8)c67)cc5)cc4)c4ccccc4-c4ccccc43)cc2)cc1 (repeat unit) | 334.00 |
| *C(=O)c1ccc2c(c1)C(=O)N(c1cccc(C(=O)c3ccc(Oc4ccc(N5C(=O)c6ccc(*)cc6C5=O)cc4)cc3)c1)C2=O (repeat unit) | 251.00 |
| *C(=O)Nc1ccc2c(c1)-c1cc(NC(=O)c3ccc4c(c3)C(=O)N(c3cccc(P(=O)(c5ccccc5)c5cccc(N6C(=O)c7ccc(*)cc7C6=O)c5)c3)C4=O)ccc1C2 (repeat unit) | 248.00 |
| *Oc1ccc(C2(c3ccc(Oc4ccc(C(=O)c5ccc(C(=O)c6ccc(*)c(C(F)(F)F)c6)cc5)cc4C(F)(F)F)cc3)c3ccccc3-c3ccccc32)cc1 (repeat unit) | 229.00 |
| *c1ccc2c(c1)C(CC(CC)CCCC)(CC(CC)CCCC)c1cc(*)ccc1-2 (repeat unit) | 44.00 ± 21 |
| *Oc1ccc(C2(c3ccc(OC(=O)c4ccc(C(*)=O)cc4)cc3)CCc3ccccc32)cc1 (repeat unit) | 312.00 |
| *CCCCCCOC(=O)C(CCCCP(=O)(O)O)C(=O)OCCCCCCOc1ccc(-n2on2-c2ccc(O*)cc2)cc1 (repeat unit) | 19.00 |
| *Oc1ccc(-c2ccc(NC(=O)c3cc(C(=O)Nc4ccc(-c5ccc(Oc6ccc(C(c7ccc(*)cc7)(C(F)(F)F)C(F)(F)F)cc6)c(C(F)(F)F)c5)cc4)cc(C(C)(C)C)c3)cc2)cc1C(F)(F)F (repeat unit) | 251.50 |
| *CCNC(=O)c1ccc(C(=O)N*)c(Sc2ccccc2)c1 (repeat unit) | 172.00 |
| *C(=O)c1ccc2c(c1)C(=O)N(c1cccc(Nc3nc(Nc4cccc(N5C(=O)c6ccc(*)cc6C5=O)c4)nc(N(C)C)n3)c1)C2=O (repeat unit) | 294.00 |
| *C(=O)Nc1ccc(Oc2ccc(Oc3ccc(NC(=O)c4ccc5c(c4)C(=O)N(c4ccc(Oc6ccc(C7(c8ccc(Oc9ccc(N%10C(=O)c%11ccc(*)cc%11C%10=O)cc9)cc8)CC8CC7C7CCCC87)cc6)cc4)C5=O)cc3)cc2)cc1 (repeat unit) | 257.00 |
| *CC/C=C(/*)c1ccccc1 (repeat unit) | 39.50 |
| *CCOCCOCCOc1cccc(NC(=O)c2cccc(C(=O)Nc3cccc(O*)c3)c2)c1 (repeat unit) | 111.00 |
| */C=C/c1ccc(N(C)CCOC(=O)Nc2ccc(C)c(NC(=O)OCCN(C)c3ccc(/C=C/C4=CC(=C(C#N)C#N)C=C(*)O4)s3)c2)s1 (repeat unit) | 183.00 |
| *CC(*)c1cc(Br)ccc1OC(C)C (repeat unit) | 35.00 |
| *CCOCCOC(=O)CCSCCC(=O)O* (repeat unit) | -33.00 |
| *Oc1cccc(NC(=O)c2ccc(Oc3ccc(C(C)(C)c4cccc(C(C)(C)c5ccc(Oc6ccc(C(=O)Nc7ccc(*)cc7)cc6)cc5)c4)cc3)cc2)c1 (repeat unit) | 147.00 |
| *C(=O)Nc1ccc(S(=O)(=O)c2ccc(N3C(=O)CC(N4C(=O)c5ccc(*)cc5C4=O)C3=O)cc2)cc1 (repeat unit) | 145.00 |
| *CC(*)c1cc(C(C)(C)C)ccc1C (repeat unit) | 87.00 |
| *CC(*)(C)C(=O)OCCBr (repeat unit) | 52.00 |

| Compound | glass transition temperature [°C] |
| --- | --- |
| *Oc1ccc(NC(=O)c2cccc(C(=O)Nc3ccc(*)cc3)c2)cc1 (repeat unit) | 264.00 |
| */C=C(/*)c1ccccc1C[Si](C)(C)C (repeat unit) | 170.00 |
| *c1ccc(Oc2ccc(S(=O)(=O)c3ccc(Oc4ccc(-c5c6c(c(*)c7ccccc57)C(=O)N(c5ccc(F)cc5)C6=O)cc4)cc3)cc2)cc1 (repeat unit) | 300.00 |
| *Nc1ccc(-c2ccc(NC(=O)c3cccc(C(*)=O)c3)cc2)cc1 (repeat unit) | 294.00 |
| *c1ccc(Oc2ccc(NC(=O)c3ccc(Oc4cccc5c4C(=O)N(*)C5=O)cc3)cc2)cc1 (repeat unit) | 253.00 |
| *c1cccc(CCCOc2cccc(N3C(=O)c4cccc(-c5ccc6c(c5)C(=O)N(*)C6=O)c4C3=O)c2)c1 (repeat unit) | 178.00 |
| *C(F)(F)C1(F)C(F)(F)C(*)(F)C(F)(F)C(F)(F)C(F)(F)C1(F)F (repeat unit) | 198.00 |
| *OC(=O)OCCCCCCCCOC(=O)OC1COC2C(*)COC12 (repeat unit) | 19.50 |
| *c1ccc(Oc2ccccc2Oc2ccc(N3C(=O)c4ccc(Oc5ccccc5Oc5ccc6c(c5)C(=O)N(*)C6=O)cc4C3=O)cc2C(F)(F)F)c(C(F)(F)F)c1 (repeat unit) | 185.00 |
| *CCN(CCCCCCOc1ccc(/N=N/c2ccccc2)cc1)CCOC(=O)Nc1ccc(Cc2ccc(NC(=O)O*)cc2)cc1 (repeat unit) | 44.00 |
| *O[Si](C)(C)Oc1ccc(C(C)(C)c2ccc(*)cc2)cc1 (repeat unit) | 45.00 |
| */C(C#N)=C/c1cc(/C=C(\C#N)c2ccc3c(c2)C(CCCCCCCC)(CCCCCCCC)c2cc(*)ccc2-3)cc(N(c2ccccc2)c2ccccc2)c1 (repeat unit) | 136.00 |
| *c1ccc(Oc2ccc(C(C)(C)c3ccc(Oc4ccc(-c5nnc(*)n5-c5ccc(S(C)(=O)=O)cc5)cc4)cc3)cc2)cc1 (repeat unit) | 230.00 |
| *O[Si](*)(C)CCCCCCCCCCC(=O)Oc1ccc(OC(=O)c2ccc(OCC(C)CC)cc2)cc1 (repeat unit) | 13.40 |
| *c1ccc(Oc2ccc(NC(=O)c3ccc4c(c3)C(=O)N(c3ccc(Cc5ccc(N6C(=O)c7ccc(C(=O)Nc8ccc(Oc9ccc(C%10(*)NC(=O)c%11ccccc%11%10)cc9)cc8)cc7C6=O)cc5)cc3)C4=O)cc2)cc1 (repeat unit) | 302.00 |
| *CCN(*)C(=O)c1ccc(F)c(F)c1F (repeat unit) | 102.00 |
| *c1ccc2c(c1)C(=O)N(c1ccc(Oc3cccc(Oc4ccc(N5C(=O)c6ccc(C(*)(C(F)(F)F)C(F)(F)F)cc6C5=O)cc4)c3C#N)cc1)C2=O (repeat unit) | 280.00 |
| *c1cc(Oc2c(C)cc(-c3cc(C)c(Oc4cc(N5C(=O)c6ccc(Oc7ccc8c(c7)C(=O)N(*)C8=O)cc6C5=O)cc(C(F)(F)F)c4)c(C)c3)cc2C)cc(C(F)(F)F)c1 (repeat unit) | 252.20 |
| *CCCC(=O)Oc1ccc(-c2ccc(OC(=O)c3ccc4c(c3)C(=O)N(*)C4=O)cc2)cc1 (repeat unit) | 132.00 |
| *CCCCCCCCCOC(=O)C(O)C(O)C(=O)O* (repeat unit) | -11.00 |
